Here are results for 4 compounds from patent US6290995A, “Plant drug for preventing cancer II” (priority 2000, dated 2001).

Experiment [1] has as its system c-myb RNA. The experiment in a line: Inhibition of oncogene c-myb RNA in ML-1 cells (northern blot). It counts as cell-based. Particulars: Homo sapiens, ML1, 10 ng/ml, P <0.01.
Protocol: (§1) Cells were maintained in suspension culture in RPMI 1640 medium supplemented with 7.5% heat-inactivated FBS, Cells growth and viability were assayed by hemocytometer using trypan blue dye exclusion. RNA was isolated by the CsCl gradient modification. RNA pellets were washed twice by reprecipitation in ethanol and quantitated by absorbency at 260 nM. RNA analyzed by electrophoresis of 15 μg of RNA through 1.2% agarose formaldehyde gels followed by northern blot transfer to nitrocellulose.
(§2) Single-standard uniformly labeled DNA probes were prepared. Probe of c-myc was a 1.7 Kb cla-Eco RI restriction fragment containing the 3'exon region of human c-myc and probe of c-myb was 1.0 Kb myb-specific Bam HI fragment. Probes for n-ras contained DNA fragments using a modification of the PCR technique. Probes for myb, myc and n-ras were isolated by electrolution. The isolated fragments were labeled to high specific activity with [α^32 P]-dCTP (3000 ci/mmol). Prehybridization of the filter was performed. The hybridization mixer contained 50,000 cpm of probe. The probes were hybridized at 58° C. in 15 mM NaCl, 1.5 nM sodium citrate for 3 hours. After hybridization, they were exposed to XAR-5 film. Oncogene expression was quantitated by densitometer scanning of the autoradiography.
In experiment [2] the test system is c-myc RNA. Kind of experiment: Inhibition of oncogene c-myc RNA in ML-1 cells (northern blot). Format: cell-based. Particulars: Homo sapiens, ML1, 10 ng/ml, P <0.01.
Protocol: as §1, §2
Experiment [3] concerns n-ras RNA. Kind of experiment: Inhibition of oncogene n-ras RNA in ML-1 cells (northern blot). Format: cell-based. Particulars: Homo sapiens, ML1, 10 ng/ml, P <0.01.
Protocol: as §1, §2
Experiment [4] relates to mouse epidermis. Particulars: in words; cited from earlier work.
Experiment [5] deals with advanced ovarian and breast cancer. Particulars: clinical trials, late 1980s and early 1990s; cited from earlier work.

For orientation: inhibition means the share of the control response that was lost under treatment. A low value points to a weak effect. For the compound `O=C(O)[C@H]1O[C@@H](Oc2cc3oc(-c4ccccc4)cc(=O)c3c(O)c2O)[C@H](O)[C@@H](O)[C@@H]1O` [BA, Baicalin], the inhibition at 0.01 µg/mL in experiment [1] is 24.4 ± 3%; in experiment [2], 29.3 ± 3.4%; in experiment [3] it was 20.6 ± 3%.

With `COc1ccc2cc3[n+](cc2c1OC)CCc1cc2c(cc1-3)OCO2` [BE, Berberine], the inhibition at 0.01 µg/mL in experiment [1] stood at 52 ± 5.8%; in experiment [2], 50.5 ± 6.1%; in experiment [3], 30.2 ± 3.5%.

`CCCCCCCCCCCCCC(=O)O[C@@H]1[C@@H](C)[C@@]2(O)[C@@H](C=C(CO)C[C@]3(O)C(=O)C(C)=C[C@@H]23)[C@@H]2C(C)(C)[C@]12OC(C)=O` [TPA, tetradecanoyphorbol-13-acetate]: the “effect on [3H] thymidine incorporation in mouse epidermis” value in experiment [4] is listed as “remarkable increase”.

On to `CC(=O)O[C@H]1C(=O)[C@@]2(C)[C@H]([C@H](OC(=O)c3ccccc3)[C@]3(O)C[C@H](OC(=O)[C@H](O)[C@@H](NC(=O)c4ccccc4)c4ccccc4)C(C)=C1C3(C)C)[C@]1(OC(C)=O)CO[C@@H]1C[C@@H]2O` [Taxol], for which the “clinical activity against advanced ovarian and breast cancer” value in experiment [5] is “impressive clinical activities”.
